Like-named read-outs stand apart in the source and are kept apart here.
Assays:
[1] = Plasma protein binding by equilibrium dialysis, human plasma; assay type: in vitro ADME; conditions: human, plasma
Protocol: (§1) The plasma protein binding (PPB) and blood plasma ratio (BPR) are crucial parameters influencing the drug distribution and elimination in plasma. The PPB profile of 25a was evaluated by equilibrium dialysis, a classic method to assess the interactions of small molecules with proteins. The PPB of 25a was tested at 50, 500, and 2500 ng/mL (Table 7). […] When considering the allometric scaling of PK parameters, the species difference of protein binding between humans and rats should be considered.
(§2) The plasma protein binding (PPB) ratio of 25a was assessed via equilibrium dialysis in SD rats and human plasma. Four hundred microliters of plasma containing 50, 500, or 2500 ng/mL 25a were loaded into the dialysis bags (plasma side), and the bags were placed into tubes containing 4 mL of the dialysis buffer (buffer side). The tubes were then rotated at approximately 100 rpm in a humidified incubator with 5% CO2 at 37 ± 1 °C for 5 h.
(§3) After the 5 h dialysis, aliquots of 50 μL samples were taken from both the buffer and the plasma sides. An equal volume of the opposite blank matrix (buffer or plasma) was added to each sample to reach a final volume of 100 μL with a volume ratio of plasma to dialysis buffer at 1:1 (v/v). All samples were further processed by adding 600 μL of stop solution (containing 10 ng/mL IS) to precipitate protein for LC–MS/MS analysis. The PPB ratio (%) was calculated by PPB% = 100% × (1 − Conc.buffer side/Conc.plasma side).

plasma protein = assay: as above; assay type: in vitro ADME; conditions: human plasma, 50, 500, 2500 ng/mL
Protocol: as §1, §2, §3

[2] = Blood plasma ratio, human blood; assay type: in vitro ADME; conditions: for Blood Plasma Ratio: human
Protocol: The BPR of 25a in rats and humans was assessed. […] In addition, a significant species difference between rats and humans was observed (p < 0.05, Student’s t-test, n = 3).
The blood plasma ratio of 25a was investigated as previously reported. Briefly, fresh whole blood was collected into collection tubes containing K2–EDTA as an anticoagulant from SD rats and healthy volunteers. Blood spiked with 50, 500, and 2500 ng/mL 25a was incubated in the incubator with 5% CO2 at 37 ± 1 °C for 1 h. Some of the incubated samples were processed as blood samples; the remaining incubated samples were centrifuged to generate plasma samples. The concentration of 25a in samples was determined using the validated LC–MS/MS method.

SD rats = assay: PK-PD study: urine output increment (diuresis) in rats; assay type: in vivo, Sprague-Dawley rats
[3] = Tissue distribution study in rats; assay type: in vivo, SD rats; conditions: male, Sprague-Dawley, rat, single oral dose 100 mg/kg; for Kp: read-out: Kp (tissue plasma distribution coefficient)
From the text: Compound 25a was extensively distributed in most tissues of rats, and the drug concentration was high in organs with abundant hemoperfusions, such as the kidney, heart, lung, and spleen, among which the drug concentration was the highest in the kidney, with a tissue plasma distribution coefficient Kp = 1.67. The high kidney distribution is a good characteristic for diuretics targeting UTs, because the UTs in the renal inner medullary collecting duct (UT-A1/3) and renal vasa recta microvessels (UT-B) play vital roles in urea recycling and urine concentration. […] Thus, the potential risk of 25a for the central nervous system and male reproductive system is probably low.
Twenty-four SD rats were randomly divided into six groups and received a single oral dose of 25a at 100 mg/kg. Blood and tissues samples (i.e., brain, heart, lungs, liver, spleen, kidneys, muscle, skin, fat, testes, and leg bones) were collected at 0.25 h, 0.5 h, 2 h, 6 h, 12 h, and 24 h after dosing. The tissue samples were rinsed with cold saline and dried on filter papers, weighed, and homogenized with fivefold volumes of ultrapure water using a homogenizer (T10, IKA, Staufen, Germany) on ice. The right shin bone of the rat was crushed and soaked in methanol for 12 h at 4 °C. Tissue homogenate or bone soak solution was prepared and analyzed using the above method. Samples were stored at −80 °C until analysis.

mice = system: mice; design: method as in PMID 34601246; conditions: orally administered; cited from earlier work
[4] = plasma (tissue distribution study)

Which fraction unbound at 5 h, 50 ng/mL ([1]; human plasma, 50 ng/mL) does the source give for CC(=O)Nc1ccc(NC(=O)c2ccc(C(C)=O)o2)cc1 [Compound 25a, N-(4-acetamidophenyl)-5-acetylfuran-2-carboxamide] here?
Its fraction unbound at 5 h, 50 ng/mL is 0.559.

What about the fraction unbound at 5 h, 500 ng/mL ([1]; human plasma, 500 ng/mL) of the same compound?
The fraction unbound at 5 h, 500 ng/mL was 0.612.

What about the fraction unbound at 5 h, 2500 ng/mL ([1]; human plasma, 2500 ng/mL) of the same compound?
Its fraction unbound at 5 h, 2500 ng/mL is 0.595.

What about the fraction unbound at 5 h ([1]; human plasma, 50, 500, 2500 ng/mL, read-out: mean plasma protein binding (PPB) (converted)) of the same compound?
Its fraction unbound at 5 h is roughly 0.6.

What about the “mean plasma protein binding (PPB)” value (plasma protein) of the same compound?
The value was 38.8%–44.1%.

And the “Blood Plasma Ratio” value ([2]; 50 ng/mL)?
The value was 1.39 ± 0.14.

What about the “Blood Plasma Ratio” value ([2]; 500 ng/mL) of the same compound?
The value was 1.28 ± 0.05.

What about the “Blood Plasma Ratio” value ([2]; 2500 ng/mL) of the same compound?
Its value is 1.22 ± 0.32.

And the “mean blood plasma ratio (BPR)” value ([2]; humans, 50, 500, 2500 ng/mL)?
The value was 1.22–1.39.

And the “urine output increment per 12 h (diuresis)” value (SD rats; p.o. 25 mg/kg)?
Its value is 0.5 ± 0.2 mL.

What about the “urine output increment per 12 h (diuresis)” value (SD rats; p.o. 50 mg/kg) of the same compound?
The value was 1.6 ± 0.8 mL.

What about the “urine output increment per 12 h (diuresis)” value (SD rats; p.o. 100 mg/kg) of the same compound?
Its value is 2.7 ± 0.9 mL.

What about the AUC(0-t) ([3]; bone) of the same compound?
Its AUC(0-t) is 2680 ± 660 ng·h/mL.

What about the Cmax ([3]; bone) of the same compound?
Its Cmax is 413 ± 150 ng/mL.

What about the Tmax ([3]; bone) of the same compound?
Its Tmax is 1.1 ± 0.9 h.

And the half-life ([3]; bone)?
The half-life was 3.7 ± 0.5 h.

What about the Kp ([3]; bone) of the same compound?
Its Kp is 0.4.

What about the AUC(0-t) ([3]; brain) of the same compound?
Its AUC(0-t) is 1390 ± 602 ng·h/mL.

What about the Cmax ([3]; brain) of the same compound?
The Cmax was 820 ± 769 ng/mL.

And the Tmax ([3]; brain)?
The Tmax was 0.9 ± 0.6 h.

And the half-life ([3]; brain)?
Its half-life is 6.1 ± 2.8 h.

What about the Kp ([3]; brain) of the same compound?
The Kp was 0.27.

And the AUC(0-t) ([3]; fat)?
Its AUC(0-t) is 1570 ± 650 ng·h/mL.

And the Cmax ([3]; fat)?
The Cmax was 333 ± 238 ng/mL.

And the Tmax ([3]; fat)?
Its Tmax is 1.3 ± 0.8 h.

What about the half-life ([3]; fat) of the same compound?
Its half-life is 6.6 ± 4.2 h.

And the Kp ([3]; fat)?
The Kp was 0.31.

And the AUC(0-t) ([3]; heart)?
The AUC(0-t) was 4160 ± 1010 ng·h/mL.

What about the Cmax ([3]; heart) of the same compound?
Its Cmax is 631 ± 64.8 ng/mL.

And the Tmax ([3]; heart)?
The Tmax was 0.8 ± 0.7 h.

What about the half-life ([3]; heart) of the same compound?
The half-life was 3.5 ± 0.6 h.

And the Kp ([3]; heart)?
Its Kp is 0.8.

And the AUC(0-t) ([3]; kidney)?
The AUC(0-t) was 8670 ± 1510 ng·h/mL.

And the Cmax ([3]; kidney)?
Its Cmax is 1480 ± 473 ng/mL.

What about the Tmax ([3]; kidney) of the same compound?
Its Tmax is 0.4 ± 0.1 h.

And the half-life ([3]; kidney)?
Its half-life is 4.2 ± 0.8 h.

What about the Kp ([3]; kidney) of the same compound?
Its Kp is 1.67.

What about the AUC(0-t) ([3]; liver) of the same compound?
The AUC(0-t) was 1650 ± 1000 ng·h/mL.

And the Cmax ([3]; liver)?
The Cmax was 183 ± 144 ng/mL.

And the Tmax ([3]; liver)?
Its Tmax is 3.6 ± 2.5 h.

What about the half-life ([3]; liver) of the same compound?
The half-life was 6.3 ± 3.4 h.

What about the Kp ([3]; liver) of the same compound?
The Kp was 0.22.

And the AUC(0-t) ([3]; lung)?
Its AUC(0-t) is 3720 ± 880 ng·h/mL.

What about the Cmax ([3]; lung) of the same compound?
Its Cmax is 1130 ± 1010 ng/mL.

And the Tmax ([3]; lung)?
The Tmax was 0.4 ± 0.1 h.

And the half-life ([3]; lung)?
The half-life was 3.6 ± 0.7 h.

What about the Kp ([3]; lung) of the same compound?
Its Kp is 0.72.

What about the AUC(0-t) ([3]; muscle) of the same compound?
The AUC(0-t) was 4000 ± 790 ng·h/mL.

What about the Cmax ([3]; muscle) of the same compound?
The Cmax was 728 ± 216 ng/mL.

What about the Tmax ([3]; muscle) of the same compound?
Its Tmax is 0.8 ± 0.7 h.

And the half-life ([3]; muscle)?
The half-life was 3.2 ± 0.4 h.

And the Kp ([3]; muscle)?
Its Kp is 0.79.

And the AUC(0-t) [3, 4]?
Its AUC(0-t) is 5200 ± 1590 ng·h/mL.

And the Cmax [3, 4]?
Its Cmax is 1120 ± 132 ng/mL.

And the Tmax [3, 4]?
Its Tmax is 0.3 h.

And the half-life [3, 4]?
The half-life was 5.7 ± 4.8 h.

And the Kp [3, 4]?
Its Kp is 1.

And the AUC(0-t) ([3]; skin)?
The AUC(0-t) was 4830 ± 1080 ng·h/mL.

What about the Cmax ([3]; skin) of the same compound?
Its Cmax is 701 ± 124 ng/mL.

What about the Tmax ([3]; skin) of the same compound?
Its Tmax is 2.6 ± 2.1 h.

What about the half-life ([3]; skin) of the same compound?
The half-life was 3.6 ± 0.5 h.

What about the Kp ([3]; skin) of the same compound?
Its Kp is 0.93.

What about the AUC(0-t) ([3]; spleen) of the same compound?
The AUC(0-t) was 4270 ± 2630 ng·h/mL.

And the Cmax ([3]; spleen)?
Its Cmax is 934 ± 793 ng/mL.

What about the Tmax ([3]; spleen) of the same compound?
Its Tmax is 0.9 ± 0.6 h.

And the half-life ([3]; spleen)?
The half-life was 4.5 ± 0.8 h.

And the Kp ([3]; spleen)?
Its Kp is 0.82.

What about the AUC(0-t) ([3]; testis) of the same compound?
Its AUC(0-t) is 338 ± 144 ng·h/mL.

And the Cmax ([3]; testis)?
The Cmax was 50.6 ± 26.4 ng/mL.

And the Tmax ([3]; testis)?
The Tmax was 6 h.

And the Kp ([3]; testis)?
The Kp was 0.06.

And the “Na+, K+, and Cl− levels in the blood” value (mice)?
The value was “without disturbing”.

And the “duration of urea-selective diuresis” value (mice)?
Its value is 8 h.

What about the “urine output vs vehicle control” value (mice) of the same compound?
The value was “three times higher urine output than vehicle control”.
